# Experiments:
# [1] = system: THP1Blue cells, NOD2; experiment: THP1Blue NF-κB-SEAP reporter assay, MDP (NOD2); format: cell-based; conditions: Homo sapiens; MDP 10 μg/ml; read-out: THP1-Blue NF-κB Inhibition IC50 (MDP)
# Procedure: For HEKBlue assay, cells were seeded into clear 96‐well plates at 7.5 × 10^3 cells/well and allowed to attach for 48 h. On the day of the experiment, media was changed to 100 μl of HEKBlue detection media (InvivoGen). Inhibitors were diluted and added in 0.5 μl DMSO 15 min prior to the addition of 1 ng/ml L18‐MDP (InvivoGen). After 8–9 h, absorbance at 620 nm was measured using Victor3V plate reader (Perkin Elmer, Waltham, MA). Values of media‐only wells were subtracted and %inhibition for each compound concentration relative to the DMSO/L18‐MDP‐treated controls was calculated. […] After induction, 20 μl of media was mixed with 180 μl of QUANTI‐Blue reagent (InvivoGen) and incubated at 37°C for 3–4 h, followed by absorbance measurement at 620 nm. IC50 values were calculated as described for HEKBlue assay. […]
# For HEKBlue assay, cells were seeded into clear 96 well plates at 7.5x10^3 cells/well and allowed to attach for 48 h. […] After 8-9 h, absorbance at 620 nm was measured using Victor3V plate reader (Perkin Elmer, Waltham, MA). Values of media-only wells were subtracted and %inhibition for each compound concentration relative to the DMSO/L18-MDP-treated controls were calculated.
# Inhibition values + StDev were fitted by non-linear regression using Prism software (GraphPad Software, La Jolla, CA) to calculate IC50 values. […] IC50 values were calculated as described for HEKBlue assay. […]
# [2] = system: C57Bl6/J mice; experiment: Inhibition of MDP-elicited TNF release in vivo; conditions: 10 mg/kg i.p. 30 min before MDP 100 μg/mouse i.p., blood after 4 h
# Procedure: Female 6‐ to 8‐week‐old C57Bl6/J mice (Jackson labs) were administered with the compounds i.p. 30 min prior to the i.p. injections of MDP as previously described (Nachbur et al, 2015). After 4 h, blood was collected by cardiac puncture. 100 μl of serum (diluted twofold) per animal was analyzed using anti‐mouse TNF ELISA (ThermoFisher Scientific).
# All mouse experiments were approved by the Tufts University Committee on the Use and Care of Animals and performed according to accepted veterinary standards. Female 6-8-week-old C57Bl6/J mice (Jackson labs) were used for the experiments. Experiments were performed as previously described (Nachbur et al., 2015). Tested compounds were formulated in 6% Captisol formulation, pH 4.0 (100 μl/mouse, 10 mg/kg, Ligand Pharmaceuticals, San Diego, CA). MDP (Bachem, King of Prussia, PA) was dissolved in saline (100 μl/mouse, 100 μg/mouse). Mice were administered with the drugs i.p. 30 min prior to the i.p. injections of MDP. After 4 h, blood was collected by cardiac puncture.
# 100 μl of serum (diluted 2-fold) per animal was analyzed using anti-mouse TNF ELISA (ThermoFisher […]
# Expression and purification of RIPK2 for X-ray crystallography […]
SMILES,IC50 [1] [µM],MDP-elicited serum TNF levels [2]
CCCS(=O)(=O)Nc1cc(-c2cc(-c3ccc(N4CCNCC4)cc3)cnc2N)cc(F)c1OC [CSLP37],0.0225 ± 0.0021,potently reduced
CCCS(=O)(=O)Nc1cc(-c2cc(-c3ccc(N4CCNCC4)cc3)cnc2N)cc(OC)c1OC [CSLP43],0.00134 ± 8e-05,
"Cc1ccc(-c2nn(C(C)(C)CNC(=O)c3ccncc3)c3ncnc(N)c23)cc1 [WEHI‐345, reference compound]",,partial reduction

# From article PMC6120666 (The EMBO Journal, 2018)
